Test results taken from ChEMBL document CHEMBL1148801, “Structural modification of the P2' position of 2,7-dialkyl-substituted 5(S)-amino-4(S)-hydroxy-8-phenyl-octanecarboxamides: the discovery of aliskiren, a potent nonpeptide human renin inhibitor active after once daily dosing in marmosets” (J Med Chem, 2007).

Assays:
physchem [1] = conditions: octanol/water, pH 7.4
physchem [2] = test: physchem
Renin [3] = target: T1, Renin (Homo sapiens, UniProt P00797)
T1 sequence (P00797 whole entry): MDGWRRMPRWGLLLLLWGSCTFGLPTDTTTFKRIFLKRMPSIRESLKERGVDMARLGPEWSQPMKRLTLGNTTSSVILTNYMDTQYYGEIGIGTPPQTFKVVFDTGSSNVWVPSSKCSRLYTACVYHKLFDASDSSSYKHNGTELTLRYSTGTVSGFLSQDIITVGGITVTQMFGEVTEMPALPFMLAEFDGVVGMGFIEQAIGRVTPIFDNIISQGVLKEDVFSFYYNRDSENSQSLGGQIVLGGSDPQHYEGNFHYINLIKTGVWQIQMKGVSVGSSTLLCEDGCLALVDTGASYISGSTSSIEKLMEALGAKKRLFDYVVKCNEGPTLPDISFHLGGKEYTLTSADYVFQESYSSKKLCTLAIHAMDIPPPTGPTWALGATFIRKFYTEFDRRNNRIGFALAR

Renin [4] = target: T1, Renin; remark: listed apart in the source
Renin [5] = target: T2, Renin (Callithrix jacchus, UniProt Q9TSZ1); type: cell-free, Plasma
T2 sequence (Q9TSZ1 whole entry): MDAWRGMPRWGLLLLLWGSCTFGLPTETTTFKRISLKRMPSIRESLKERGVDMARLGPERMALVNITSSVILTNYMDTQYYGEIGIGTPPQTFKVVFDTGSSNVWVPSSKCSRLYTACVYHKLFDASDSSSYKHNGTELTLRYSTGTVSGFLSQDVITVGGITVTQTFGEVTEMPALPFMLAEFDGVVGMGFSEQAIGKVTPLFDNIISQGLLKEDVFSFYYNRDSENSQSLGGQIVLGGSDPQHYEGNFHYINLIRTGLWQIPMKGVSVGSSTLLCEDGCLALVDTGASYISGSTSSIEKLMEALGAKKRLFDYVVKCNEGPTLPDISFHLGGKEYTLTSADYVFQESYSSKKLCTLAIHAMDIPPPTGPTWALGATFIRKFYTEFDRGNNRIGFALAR

in vivo [6] = conditions: marmoset, po, 3 mg/kg
Callithrix jacchus = species: Callithrix jacchus; type: functional, Plasma
physchem [7] = conditions: water
Beta-secretase 1 = Beta-secretase 1 (Homo sapiens, UniProt P56817)
Beta-secretase 1, sequence (P56817 whole entry): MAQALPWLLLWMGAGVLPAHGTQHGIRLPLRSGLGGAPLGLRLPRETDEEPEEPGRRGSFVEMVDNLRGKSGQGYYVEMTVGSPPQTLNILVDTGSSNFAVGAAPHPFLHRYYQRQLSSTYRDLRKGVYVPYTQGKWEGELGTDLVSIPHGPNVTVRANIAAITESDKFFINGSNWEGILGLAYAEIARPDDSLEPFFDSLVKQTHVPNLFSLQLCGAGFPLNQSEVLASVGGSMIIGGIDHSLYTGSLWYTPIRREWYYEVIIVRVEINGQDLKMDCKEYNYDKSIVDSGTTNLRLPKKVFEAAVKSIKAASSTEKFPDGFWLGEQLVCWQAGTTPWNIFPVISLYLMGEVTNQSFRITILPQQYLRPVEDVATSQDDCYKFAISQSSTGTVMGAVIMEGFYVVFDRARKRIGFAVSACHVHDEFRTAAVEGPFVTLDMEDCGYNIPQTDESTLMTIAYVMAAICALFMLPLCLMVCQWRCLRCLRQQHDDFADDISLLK

in vivo [8] = conditions: rat, po
Pepsin A = Pepsin A (Homo sapiens, UniProt P0DJD9)
Pepsin A, sequence (P0DJD9 whole entry): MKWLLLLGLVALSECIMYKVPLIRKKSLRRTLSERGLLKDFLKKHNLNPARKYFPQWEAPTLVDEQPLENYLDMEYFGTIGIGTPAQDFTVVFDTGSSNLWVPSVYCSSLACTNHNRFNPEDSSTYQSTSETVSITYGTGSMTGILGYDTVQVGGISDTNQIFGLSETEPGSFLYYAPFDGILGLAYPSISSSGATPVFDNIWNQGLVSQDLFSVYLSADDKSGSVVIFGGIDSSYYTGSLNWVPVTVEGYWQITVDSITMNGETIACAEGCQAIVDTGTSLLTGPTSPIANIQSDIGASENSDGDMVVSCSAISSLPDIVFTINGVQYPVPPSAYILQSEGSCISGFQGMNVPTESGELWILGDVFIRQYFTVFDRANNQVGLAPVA

in vivo [9] = conditions: dog, po
Cathepsin E = target: T3, Cathepsin E (Homo sapiens, UniProt P14091)
T3 sequence (P14091 whole entry): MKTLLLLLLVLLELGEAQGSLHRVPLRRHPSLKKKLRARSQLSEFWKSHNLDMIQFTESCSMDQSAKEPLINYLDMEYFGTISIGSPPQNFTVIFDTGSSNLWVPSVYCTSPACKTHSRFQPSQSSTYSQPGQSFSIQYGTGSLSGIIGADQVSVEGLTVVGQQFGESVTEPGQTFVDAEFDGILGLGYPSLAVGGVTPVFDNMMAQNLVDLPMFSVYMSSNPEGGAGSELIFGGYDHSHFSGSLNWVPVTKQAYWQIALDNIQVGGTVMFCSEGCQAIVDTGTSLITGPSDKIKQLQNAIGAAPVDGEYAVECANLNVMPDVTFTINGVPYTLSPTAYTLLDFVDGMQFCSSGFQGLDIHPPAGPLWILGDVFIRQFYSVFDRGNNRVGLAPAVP

in vivo [10] = conditions: marmoset
Cathepsin D = Cathepsin D (Homo sapiens, UniProt P07339)
Cathepsin D, sequence (P07339 65-162 limits assumed): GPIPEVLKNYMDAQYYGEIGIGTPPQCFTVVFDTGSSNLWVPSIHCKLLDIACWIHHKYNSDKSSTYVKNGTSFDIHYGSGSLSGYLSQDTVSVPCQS
Cathepsin D, sequence (P07339 169-412 limits assumed): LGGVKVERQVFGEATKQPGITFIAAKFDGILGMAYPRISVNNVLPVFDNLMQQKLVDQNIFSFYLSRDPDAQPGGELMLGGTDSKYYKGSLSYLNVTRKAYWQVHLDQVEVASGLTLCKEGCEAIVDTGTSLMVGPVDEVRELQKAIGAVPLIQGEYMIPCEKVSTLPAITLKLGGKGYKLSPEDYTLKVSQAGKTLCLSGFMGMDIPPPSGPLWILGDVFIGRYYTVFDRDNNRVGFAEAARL

physchem [11] = conditions: buffer, pH 7.4
physchem [12] = test: physchem; remark: listed apart in the source
physchem [13] = conditions: octanol/water, pH 6.8

SMILES | IC50 (Renin [3]) [nM] | IC50 (Renin [4]) [nM] | IC50 (Renin [5]) [nM] | also measured
COCCCOc1cc(C[C@@H](C[C@H](N)[C@@H](O)C[C@H](C(=O)NCCC(=O)N(C)C)C(C)C)C(C)C)ccc1OC |  |  |  | logD (physchem [1]): 2.48; pKa (physchem [2]): 9.4
COCCCCc1cc(C[C@@H](C[C@H](N)[C@@H](O)C[C@H](C(=O)NCCN2CCOCC2)C(C)C)C(C)C)ccc1OC.Cl | 0.9 | 2 | 1 | logD (physchem [1]): 2.85; bioavailability (in vivo [6]): 30%; pKa (physchem [2]): 6.01
COCCCCc1cc(C[C@@H](C[C@H](N)[C@@H](O)C[C@H](C(=O)NCC(C)(C)C(N)=O)C(C)C)C(C)C)ccc1OC.Cl | 3 | 1 | 4 | logD (physchem [1]): 3.31; bioavailability (in vivo [6]): 8%; pKa (physchem [2]): 9.44
CNC(=O)C(C)(C)CNC(=O)[C@@H](C[C@H](O)[C@@H](N)C[C@H](Cc1ccc(OC)c(OCCCOC)c1)C(C)C)C(C)C.Cl | 0.7 | 0.4 | 2 | bioavailability (in vivo [6]): 25%
COCCCOc1cc(C[C@@H](C[C@H](N)[C@@H](O)C[C@H](C(=O)NC[C@@H]2CCC(=O)N2)C(C)C)C(C)C)ccc1OC.Cl | 0.9 | 0.6 | 3 | bioavailability (in vivo [6]): 22%
COCCCOc1cc(C[C@@H](C[C@H](N)[C@@H](O)C[C@H](C(=O)NC(C)(C)CN2CCOCC2)C(C)C)C(C)C)ccc1OC | 27 | 16 |  | 
CC[C@H](NC(=O)[C@@H](C[C@H](O)[C@@H](N)C[C@H](Cc1ccc(OC)c(OCCCOC)c1)C(C)C)C(C)C)C(N)=O |  | 0.8 | 1 | 
COCCCOc1cc(C[C@@H](C[C@H](N)[C@@H](O)C[C@H](C(=O)N[C@@H](CO)C(N)=O)C(C)C)C(C)C)ccc1OC | 3 | 2 | 6 | 
COCCCOc1cc(C[C@@H](C[C@H](N)[C@@H](O)C[C@H](C(=O)NC(C)(C)C(N)=O)C(C)C)C(C)C)ccc1OC | 100 | 13 | 200 | 
COCCCOc1cc(C[C@@H](C[C@H](N)[C@@H](O)C[C@H](C(=O)NCCC(=O)N(C)C)C(C)C)C(C)C)ccc1OC.Cl |  |  |  | bioavailability (in vivo [6]): 14%
COCCCOc1cc(C[C@@H](C[C@H](N)[C@@H](O)C[C@H](C(=O)N[C@@H](C)CC(N)=O)C(C)C)C(C)C)ccc1OC | 2 | 1 | 3 | 
COCCCOc1cc(C[C@@H](C[C@H](N)[C@@H](O)C[C@H](C(=O)NCCN2CCOCC2)C(C)C)C(C)C)ccc1OC | 1 | 0.4 | 3 | 
COCCCOc1cc(C[C@@H](C[C@H](N)[C@@H](O)C[C@H](C(=O)NCCc2nn[nH]n2)C(C)C)C(C)C)ccc1OC | 2 | 2 | 2 | 
COCCCOc1cc(C[C@@H](C[C@H](N)[C@@H](O)C[C@H](C(=O)NC(C)CN2CCOCC2)C(C)C)C(C)C)ccc1OC (stereo partly specified) |  | 3 | 9 | 
COCCCOc1cc(C[C@@H](C[C@H](N)[C@@H](O)C[C@H](C(=O)N[C@H](C)CC(N)=O)C(C)C)C(C)C)ccc1OC | 57 | 6 | 28 | 
CCCCNC(=O)[C@@H](C[C@H](O)[C@@H](N)C[C@H](Cc1ccc(OC)c(OCCCOC)c1)C(C)C)C(C)C.Cl |  |  |  | Inhibition (Callithrix jacchus): 79%
COCCCOc1cc(C[C@@H](C[C@H](N)[C@@H](O)C[C@H](C(=O)NCC(C)(C)C(=O)O)C(C)C)C(C)C)ccc1OC | 13 | 3 | 13 | 
COCCCOc1cc(C[C@@H](C[C@H](N)[C@@H](O)C[C@H](C(=O)NCCCN2CCOCC2)C(C)C)C(C)C)ccc1OC | 3 | 3 | 3 | 
COCCCOc1cc(C[C@@H](C[C@H](N)[C@@H](O)C[C@H](C(=O)NC[C@H]2CCC(=O)N2)C(C)C)C(C)C)ccc1OC.Cl | 1 | 2 | 2 | logD (physchem [1]): 2.06; solubility (physchem [7]): > 100 mg/mL; pKa (physchem [2]): 9.09
COCCCOc1cc(C[C@@H](C[C@H](N)[C@@H](O)C[C@H](C(=O)NCC(C)(C)N2CCOCC2)C(C)C)C(C)C)ccc1OC | 2 | 0.6 | 18 | 
COCCCOc1cc(C[C@@H](C[C@H](N)[C@@H](O)C[C@H](C(=O)NCC(C)(C)C(N)=O)C(C)C)C(C)C)ccc1OC.Cl |  |  |  | IC50 (Beta-secretase 1): > 10000 nM; bioavailability (in vivo [8]): 2.4%; IC50 (Pepsin A): > 10000 nM; bioavailability (in vivo [9]): 32%; IC50 (Cathepsin E): > 10000 nM; half-life (in vivo [10]): 8.7 h; bioavailability (in vivo [6]): 16%; IC50 (Cathepsin D): > 10000 nM
COCCCOc1cc(C[C@@H](C[C@H](N)[C@@H](O)C[C@H](C(=O)NCC(C)(C)C(N)=O)C(C)C)C(C)C)ccc1OC.COCCCOc1cc(C[C@@H](C[C@H](N)[C@@H](O)C[C@H](C(=O)NCC(C)(C)C(N)=O)C(C)C)C(C)C)ccc1OC.O=C(O)/C=C/C(=O)O [ALISKIREN FUMARATE] |  |  |  | logD (physchem [1]): 2.5; solubility (physchem [11]): > 100 mg/mL; solubility (physchem [12]): 0.44 mg/mL; logD (physchem [13]): 0.1; pKa (physchem [2]): 9.2
